Experimental findings from PubChem BioAssay AID488792 (NMMLSC, 2010) are described below.

For orientation: EC50 means the concentration needed to bring the measured effect to its halfway point.

Calls of active or inactive are those of the source.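 The calls were made as follows: active = EC50 at or below 33 microM; inactive = the rest.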

This assay relates to S. cerevisiae AGP1-GFP strain, flow cytometry fluorescence, 3 h. Description: yeast AGP1-GFP modulation, KU SAR set, cell-based, flow cytometry, S. cerevisiae, SAR follow-up (AID 488792). On the technique in general: In flow cytometry, cells or beads pass a laser one at a time.
Turning to `CCOC(=O)CS(=O)(=O)c1nc(-c2ccccc2)cc(C(F)(F)F)n1`, the concentration giving a half-maximal response (EC50) was 1.74 µM.

As for `CC(=O)SC(C[N+](=O)[O-])c1cn(C(C)=O)c2ccccc12` (stereo not given), the EC50 is 60.4 µM (inactive).

Take `CCC(C)Nc1nc(N)c([N+](=O)[O-])c(Nc2cccc(F)c2)n1` (stereo not given): the EC50 is 63.1 µM (inactive). The result for `Cc1cc(C(=O)Nc2nc(-c3ccccn3)cs2)ccc1[N+](=O)[O-]` reads 57.5 µM (inactive); that for `CCOC(=O)CCS(=O)(=O)c1nc(-c2ccccc2)cc(C(F)(F)F)n1`, 1.41 µM; that for `Nc1nc(Nc2cccc(Cl)c2)nc(Nc2cccc(F)c2)c1[N+](=O)[O-]`, 312 µM (inactive).

On to `CC(C)(C)C(=O)C(Cl)C(=O)Nc1ccccc1` (stereo not given), for which the EC50 was 2.09 µM.

In the case of `O=[N+]([O-])c1cc(O)c2ncccc2c1`, the EC50 is 34.3 µM (inactive).

As to `Cc1ccc(-c2nn(C(C)(C)C)c3ncnc(N)c23)cc1`, the EC50 is 300 µM (inactive). The result for `Nc1nc(Nc2ccccc2)nc(Nc2cccc(F)c2)c1[N+](=O)[O-]` reads 140 µM (inactive); that for `Cc1ccc2nc(Cl)c3nnnn3c2c1`, 0.24 µM; that for `CCN(CC)C(=O)Oc1ccnc2cc(Cl)ccc12`, 32.2 µM. Consider `CC(Oc1ccc(Br)cc1)C(=O)Nc1nc(-c2ccccn2)cs1` (stereo not given), for which the EC50 is 102 µM (inactive). In the case of `CC(C)(C)n1nc(-c2ccc(Cl)cc2)c2c(N)ncnc21` it was 10.8 µM; in that of `COC(=O)CCS(=O)(=O)c1nc(-c2ccccc2)cc(C(F)(F)F)n1`, 0.3 µM; in that of `Cc1ccc(S(=O)(=O)c2ccc([N+](=O)[O-])cn2)cc1`, 4.42 µM. In the case of `Cn1ncc(S(=O)(=O)Cc2ccccc2)c(Cl)c1=O` it was 105 µM (inactive). Take `O=C(c1ccc(C(=O)N2CCCc3ccccc32)s1)N1CCCc2ccccc21`: the EC50 is 0.46 µM. The result for `O=[N+]([O-])c1cc(Cl)c2cccnc2c1O` reads 62 µM (inactive); that for `COc1cccc(Nc2nc(N)c([N+](=O)[O-])c(Nc3cccc(F)c3)n2)c1`, 35 µM (inactive). In the case of `C/C(=N\NC(=O)c1cccc(Br)c1)c1ccccn1` it was 34.1 µM (inactive); in that of `O=C(OCC(=O)N1CCN(C(=O)c2ccco2)CC1)c1cc(-c2ccc(F)cc2)nc2ccccc12`, 1.25 µM; in that of `O=C(Nc1nc(-c2ccccn2)cs1)C1COc2ccccc2O1` (stereo not given), 72.9 µM (inactive).

For `O=[N+]([O-])c1ccc(O)c2ncccc12`, the EC50 is 5.98 µM. `O=C(Oc1c(Cl)cc(Cl)c2cccnc12)c1cccc([N+](=O)[O-])c1`: the EC50 was 34.8 µM (inactive). In the case of `Nc1cc(Oc2cccc(Cl)c2)nc(NCc2ccccc2)n1` it was 263 µM (inactive). The result for `CC(=O)c1ccc(N2CCN(C(=O)c3ccc(Br)cc3)CC2)c(F)c1` reads 4.22 µM. The result for `O=C(OCn1ncc(Br)c(Br)c1=O)c1c(F)cccc1F` reads 2.44 µM; that for `O=C(OCC(=O)N1CCN(C(=O)c2ccco2)CC1)c1cc(-c2cccc(Br)c2)nc2ccccc12`, 36.5 µM (inactive); that for `CC(C)(C)n1nc(-c2ccc(F)cc2)c2c(N)ncnc21`, 174 µM (inactive). Consider `CNc1nc(N)c([N+](=O)[O-])c(Nc2cccc(F)c2)n1`, for which the EC50 is 10.7 µM. In the case of `Cc1ccc(C(c2cc(Cl)c3cccnc3c2O)N2CCN(C)CC2)cc1` (stereo not given) it was 98.6 µM (inactive); in that of `CC(C)(C)C(=O)NC(=S)NNC(=O)c1ccc(-c2ccccc2)cc1`, 34.5 µM (inactive). The result for `CN1CCN(C(=O)c2cc(COc3c(F)cccc3F)on2)CC1c1ccccc1` (stereo not given) reads 14.1 µM; that for `CC(=O)Nc1ncnc2c1c(-c1ccc(Cl)cc1)nn2C(C)(C)C`, 137 µM (inactive).
